Reference: patent US8173133B2, “Acyl pseudodipeptides which carry a functionalized auxiliary arm” (OM Pharma, priority 1999, dated 2012)
Values joined by “and” are separate entries in the source; they are usually repeats but may differ in a detail not shown here. Equal values may be shown once.

Legend:
HIV-1 IIIB = experiment: anti-HIV activity in MT-4 cells (MTT), HIV-1 IIIB; format: cell-based
Description: (§1) T MT-4 lymphocyte cell line which had been transformed into a continuous cell line by an HTLV infection, a virus associated with one form of leukemia, was used to test the antiviral activity (anti-HIV) of AZT- and d4T-conjugated compounds according to the invention, respectively. A characteristic feature of such cells is lack of survival following an HIV infection. The test is based on protection provided by the product (like AZT) against this viral destructive effect. Products were tested in serially diluted solutions in a 96-well plate. In the upper portion of the microplate, products were tested by incubation at various concentrations with cells and virus (in triplicate), so as to determine the concentration of product which affords cell protection against the viral destructive effect. IC50 of the product is taken as the concentration where a 50% loss of viable cell count is recorded. Viable cell count was done with MTT, a yellow tetrazolium compound which undergoes enzymatic reduction (at the mitochondrial level in viable cells) into a purple colored formazan compound. Wells containing viable cells are purple in colour, whereas dead cells give a persistent yellow color. Measurement of optical density (O.D.) allows this effect to be quantified.

HIV-2 ROD = experiment: anti-HIV activity in MT-4 cells (MTT), HIV-2 ROD; format: cell-based
Description: as §1

MT-4 cells = experiment: cytotoxicity on virus-free MT-4 cells (MTT); format: cell-based
Description: Cytotoxicity of a given product is assessed in the same manner in the lower portion of the plate where the test is conducted by incubating serially diluted products over virus-free cells, to thereby determine the toxic effect of products on cells. The result is given as CC50, i.e. the concentration at which 50% of cells are dead due to product toxicity. Selectivity (selectivity index, SI) of a given product is defined as a CC50/IC50 ratio. This parameter is of great importance since the selectivity index of a fairly efficient product is high.

MxA protein = MxA protein induction in dendritic cells (Western blot); format: cell-based, human; details: 1 μg/ml; after 24 hr and 48 hours; FIGS. 77, 78
Description: The ability of products of the invention to induce production of antiviral MxA protein by predendritic cells has been assessed. MxA production by cells was measured after an SDS-PAGE electrophoretic separation by a Western Blot assay
Extraction and analysis of protein was conducted as follows: cells were harvested, then washed 3 times with PBS (phosphate buffered saline) and lyzed with a 100 Mm Tris-HCl buffer, 150 mM NaCl, 5 mM EDTA, 1% Triton-100 containing 1 mM PMSF (phenylmethylsulphonyl fluoride) and 1 μ/ml of pepstatin as protease inhibitors. Lysis was carried out at a density of 10^6 cells for 100 μl of (5×) buffer containing 60 mM Tris-HCl (pH 6.8), 10% glycerol, 2% SDS, 14.4 mM 2-mercaptoethanol and 0.1% bromophenol). Samples were heated up to 95° C. for 5 min. in sealed Eppendorf tubes. Electrophoresis was performed on a 10 cm×10 cm 12% acrylamide minigel by running a sample having the same number of cells. Migration was effected with the following buffer: 25 mM Tris, 192 mM glycine, 0.1% SDS, pH 8.3. […]
Non specific bonding sites on the membrane were blocked with 5% skimmed milk in TBS (10 mM Tris-HCl, 150 Mm NaCl, pH 7.4) and allowing to stand for 1 hour at room temperature. […] In this system, HRP catalyzes a luminol-mediated chemiluminescent reaction which can be detected on a photographic film. […]

K562 cells = experiment: activation of NK cell cytotoxicity against K562 target cells (LDH release); format: cell-based, human
Description: PBMC were recovered from buffy coats according to the procedure previously described in example 4.6. […] Cells were incubated under such conditions for 24 hours. K562 cells (human leukemia cell line, ATCC #CCL 243, 20110-2209 Manassas (Va.), U.S.A.) were maintained in culture using RPMI medium containing 10% FCS and subjected to 2 passages per week.
In order to make cytotoxicity measurement, PBMC and K562 cells were washed twice in HBSS and resuspended in Phenol Red-free RPMI medium containing 5% FCS. PBMC were divided into a round bottom 96-well plate so as to achieve a PBMC/target ratio of 20/1, 10/1 and 5/1 in 50 μl volume. 5000 K562 cells (target) were added in each well using 50 μl of Phenol Red-free RPMI. Final volume was 100 μl. The plate was centrifuged to promote contact then incubated at 37° C. for 4 hours.
Cytotoxicity was assayed using a non radioactive CytoTox 96 kit based on measuring LDH release during cell lysis (kit #G1780, batch #124100, Promega, Madison, Wis.) according to the supplier's instructions.
The percentage of cytotoxicity was calculated according to the following equation: […]

Spleenic cells = experiment: murine spleenic cell proliferation (3H-TdR take-up); format: cell-based, CBA mice; details: for increase of thymidine take-up: one day of culture
Description: Cell proliferation response is assessed by measuring triturated thymidine (^3H-TdR) take-up after 1 or 2 days of culture. Values reported in the table stand for the arithmetic mean±standard deviation of 4 cultures.

dendritic cells = experiment: in vivo maturation and migration of dendritic cells into the spleen; design: species or system mice; details: i.v. 20 μg and s.c. 5 μg per mouse
Excerpt: Immunostaining of histological slides taken from spleen of animals treated with products of the invention reveal colocalization of mature dendritic cells and T cells in the […], as is seen with LPS treatment, whereas in untreated animals, no migration and maturation are observed.

Leishmania LmCPb antigen [1] = experiment: Leishmania LmCPb immunization: lymph node cell proliferation (3H-TdR); format: in vivo, CBA mice; design: scale not given here
Description: (§2) CBA mice were administered through the tail a single subcutaneous injection (100 μl) of Leishmania parasite LmCPb antigen (3 μg per mouse)±adjuvant. […] Eleven days after injection, inguinal and periaortic lymph node cells (2 groups of 3 mice each) were cultured in triplicate in presence of purified LmCPb antigen or whole extract of the parasite (amastigote). At day 4, a supernatant sample is withdrawn and stored at −20° C. for IL-4 and γ IFN assay. Finally, tritiated thymidine (^3H-TdR) is added to the cultures to measure the proliferation reaction.
(§3) Cytokine assay is carried out by a sandwich ELISA assay (OptEIA®) kits for γ IFN and IL-4, BD, PharMingen, Basel, Switzerland) and the proliferation response is determined by measuring thymidine take-up (^3H-TdR). ^3H-TdR take-up given in cpm as the arithmetic mean value±standard deviation ([…] of 3 mice each) and IL-4 concentration given in pg/ml are individually reported for each pool of 3 mice as the arithmetic mean of two measurements (cytokine assay).
(§4) An LmCPb stock solution is prepared at a concentration of 150 μg/ml in PBS
(§5) Adjuvants: The stock solution of OM-294-MP-AC is prepared at a concentration of 0.9 mg/ml in water for injection, with addition of 0.1% triethanolamine.
(§6) Antigen-adjuvant mixture: Adjuvant preparation (4 volumes), which had been adjusted to an adequate final concentration in sterile PBS, is mixed just prior to injection with the antigen stock solution (1 volume).

Leishmania LmCPb antigen [2] = experiment: Leishmania LmCPb immunization: IL-4 and γ IFN in lymph node cell supernatant (ELISA); format: in vivo, CBA mice; details: pools a and b
Description: as §2, §3, §4, §5, §6

[3] = system: Limulus Amoebocyte Lysate

`Cc1cn([C@H]2C=C[C@@H](CO)O2)c(=O)[nH]c1=O` [Example D4T, reference compound] showed an IC50 (HIV-1 IIIB) of 107 nM, an IC50 (HIV-2 ROD) of 220 nM and a CC50 (MT-4 cells) of 321000 nM.

`CCCCCCCCCCCC(=O)O[C@H](CCCCCCCCCCC)CC(=O)NC(CCOP(=O)(O)O)C(=O)NCCCC(COC(=O)CCCCCN)NC(=O)C[C@H](O)CCCCCCCCCCC` (stereo partly drawn) [OM-197-MP-AC, 3-[(R)-3-dodecanoyloxytetra-decanoylamino]-4-oxo-5-aza-9-[(R)-3-hydroxytetradecanoylamino]-1,10-diol-dihydrogenphosphate 10-(6-aminohexanoate)] was tested, and the “production of MxA protein” value (MxA protein) was “significant rise”, the “NK activity level” value (K562 cells; 1 μg/ml) was “comparable or slightly inferior to that induced by LPS” and the “% cytotoxicity” value (K562 cells; Ratio PBMC:K562 5.1) was 7.4%. The “Optical density at 490 nm, K562 + PBMC” value (K562 cells; Ratio PBMC:K562 5.1) was 1.5, the “Optical density at 490 nm, PBMC alone” value (K562 cells; Ratio PBMC:K562 5.1) was 0.027 and the “% cytotoxicity” value (K562 cells; Ratio PBMC:K562 10.1) was 13.7%. For the same compound, the “Optical density at 490 nm, K562 + PBMC” value (K562 cells; Ratio PBMC:K562 10.1) was 1.66, the “Optical density at 490 nm, PBMC alone” value (K562 cells; Ratio PBMC:K562 10.1) was 0.084 and the “% cytotoxicity” value (K562 cells; Ratio PBMC:K562 20.1) was 22%. For the same compound, the “Optical density at 490 nm, K562 + PBMC” value (K562 cells; Ratio PBMC:K562 20.1) was 1.8, the “Optical density at 490 nm, PBMC alone” value (K562 cells; Ratio PBMC:K562 20.1, stimulus 24 hours) was 0.084 and the 3H-TdR take-up (Spleenic cells; 0.1 μg/ml, incubation 1 day) was 8.7 ± 0.7 CPM × 10^−3. The 3H-TdR take-up (Spleenic cells; 0.1 μg/ml, incubation 2 days) was 21.1 ± 1.3 CPM × 10^−3, the 3H-TdR take-up (Spleenic cells; 1 μg/ml, incubation 1 day) was 34.3 ± 2.6 CPM × 10^−3 and the 3H-TdR take-up (Spleenic cells; 1 μg/ml, incubation 2 days) was 55.6 ± 5.2 CPM × 10^−3. For the same compound, the “increase of thymidine take-up” value (Spleenic cells; 1 μg/ml) was 5 fold, the 3H-TdR take-up (Spleenic cells; 10 μg/ml, incubation 1 day) was 79.0 ± 12 CPM × 10^−3 and the 3H-TdR take-up (Spleenic cells; 10 μg/ml, incubation 2 days) was 92.7 ± 8.8 CPM × 10^−3. The “increase of thymidine take-up” value (Spleenic cells; 10 μg/ml) was 12 fold, the “maturation and migration of dendritic cells in spleen” value (dendritic cells) was “induce maturation and migration of dendritic cells into the spleen” and the triturated thymidine take-up (Leishmania LmCPb antigen [1]; adjuvant 50 μg s.c. with LmCPb, in vitro: No challenge) was 0.7 ± 0.1 CPM. For the same compound, the triturated thymidine take-up (Leishmania LmCPb antigen [1]; in vitro challenge Amastigotes 2 ×10^−6/ml) was 1.6 ± 0.3 CPM, the triturated thymidine take-up (Leishmania LmCPb antigen [1]; in vitro challenge Amastigotes 6 ×10^−6/ml) was 5.3 ± 1.5 CPM and the triturated thymidine take-up (Leishmania LmCPb antigen [1]; in vitro challenge Amastigotes 17 ×10^−6/ml) was 12.6 ± 2.5 CPM. For the same compound, the triturated thymidine take-up (Leishmania LmCPb antigen [1]; in vitro challenge Amastigotes 50 ×10^−6/ml) was 32.6 ± 5.2 CPM, the triturated thymidine take-up (Leishmania LmCPb antigen [1]; in vitro challenge Con A 5 μg/ml) was 208.5 ± 56.0 CPM and the triturated thymidine take-up (Leishmania LmCPb antigen [1]; in vitro challenge LmCPb 0.6 μg/ml) was 1.3 ± 0.5 CPM. It also gave a triturated thymidine take-up (Leishmania LmCPb antigen [1]; in vitro challenge LmCPb 5 μg/ml) of 3.0 ± 1.1 CPM, a triturated thymidine take-up (Leishmania LmCPb antigen [1]; in vitro challenge LmCPb 15 μg/ml) of 7.0 ± 0.7 CPM and an IL-4 production (Leishmania LmCPb antigen [2]; No challenge) of under 8 pg/mL. For the same compound, the IL-4 production (Leishmania LmCPb antigen [2]; in vitro challenge Amastigotes, first pair of lines) was 55 pg/mL and 70 pg/mL, the IL-4 production (Leishmania LmCPb antigen [2]; in vitro challenge Amastigotes, second pair of lines) was 29 pg/mL and 28 pg/mL and the IL-4 production (Leishmania LmCPb antigen [2]; in vitro challenge Con A) was 103 pg/mL and 102 pg/mL. The IL-4 production (Leishmania LmCPb antigen [2]; in vitro challenge LmCPb) was 12 pg/mL and 13 pg/mL, the “LAL EU/mg of product” value [3] was 6 EU/mg of product and the “LAL ng of LPS equivalent per mg of product” value [3] was 0.48 ng of LPS equivalent per mg of product.

Work on `Cc1cn([C@H]2C[C@H](N=[N+]=[N-])[C@@H](CO)O2)c(=O)[nH]c1=O` [AZT, reference compound] yielded an IC50 (HIV-1 IIIB) of 2.9 nM, an IC50 (HIV-2 ROD) of 1.8 nM and a CC50 (MT-4 cells) of 187000 nM.
